The values that follow come from patent US20080318970A1, “Treatment of Infectious Diseases” (priority 2004, published 2008).

In data set [1] the test system is S. aureus O11. The data set can be described thus: Checkerboard combination study (FIC index). It is filed as cell-based, Staphylococcus aureus. The settings on record: anti-infective agent Dicloxacillin; isolate susceptible (S). The procedure: Staphylococcus aureus O11. Clinical isolate resistant to penicillin. Susceptible to methicillin, tetracycline, beta-lactams, fluoroquinolones, chloramphenicol and aminoglycosides.
The synergistic effect was studied by checkerboard combination studies exposing cells to 0-64 μg/ml anti-infective agent in the absence or presence of trans-flupenthixol, cis-flupenthixol or trans-clopenthixol. Each experiment was repeated in tripleduplicate. MIC values represent the mean values of two separate experiments,
A log phase culture of bacteria was diluted with fresh pre-warmed medium and adjusted to a defined OD at 600 nm in order to give a final concentration of 1×10^4 bacteria/ml medium in each well. Each chemosensitising compound was added to the bacterial culture in the wells in two-fold dilutions in order to give final concentrations ranging from 0 to 8 μg/ml. Anti-infective agent was added to the bacterial culture in the wells in two-fold dilutions in order to give final concentrations ranging from 0 to 64 μg/ml Trays were incubated at 37° C. for 16 h. Wells were assessed visually for growth. The Fractional Inhibitory Concentration (FIC) was calculated for each anti-infective agent alone and in combination with trans-flupenthixol, cis-flupenthixol or trans-clopenthixol. The following formulae were used to calculate the FIC index:
FIC=FICchemosensitising compound+FICanti-infective agent
FICchemosensitising compound=(MICchemosensitising compound+anti-infective agent)/(MICchemosensitising compound)
FICanti-infective agent=(MICanti-infective agent+chemosensitising compound/(MICanti-Infective agent)
Synergy was defined as a FIC index of <0.5.

Data set [2] can be described thus: Pharmacokinetic studies of Trans-clopenthixol with mice, concentrations in sera. It is filed as in vivo, NMRI mice. The settings on record: single dose of 0.3 mg per mouse, subcutaneous, 1-24 h (FIG. 4). The procedure: Pharmacokinetic studies were done with NMRI mice. Concentrations in sera were determined after the administration of a single dose of 0.3 mg per mouse. The drug was administered by subcutaneous injection in the neck region in a volume of 0.2 ml per dose. At 1, 2, 4, 6, and 24 hours after the injection blood samples were obtained from the mice in groups of three. After collection, the blood was centrifuged and the serum was stored at −80° C. until it was analyzed by High Pressure Liquid Chromatography.

Regarding `OCCN1CCN(CC/C=C2\c3ccccc3Sc3ccc(Cl)cc32)CC1` [trans-clopenthixol], the FIC index in data set [1] came out at 0.25. In addition, the Serum values entry in data set [2] was “less than 300 ng/ml”.
